# Patent US7445803B2, “Chromium (III) alpha amino acid complexes” (priority 2002, dated 2008)
# Where two headings read alike, the source gives them in different places.
# What was measured:
# [1] = after oral administration; cited from earlier work
# [2] = system: rats; settings: cited from earlier work
# [3] = Stability on addition of 0.1 molar sodium bicarbonate (precipitate formation); assay type: physicochemical
# Experimental: (§1) A 10 ml portion was diluted with 200 ml of a 0.1 molar solution of sodium bicarbonate. […] An additional 600 ml of 0.1 molar sodium bicarbonate solution was added.
# (§2) A 10 ml portion was diluted with 200 ml of a 0.1 molar solution of sodium bicarbonate.
# as §2
# [4] = pH of aqueous solution of the complex; assay type: physicochemical; settings: 0.1 molar in water
# Experimental: as §1, §2, §2
# [5] = system: rat
# Experimental: Fifty 6 weeks old rats were used in the study (25 females and 25 males). Their body weight ranged from 130 to 220 g for males and 120-190 g for females. The animals were housed in polycarbonate cages over dust-free sawdust bedding in groups of five. The cages were placed in an air-conditioned room at 22° C. and 55% relative humidity. Rats were fed pelleted complete diet ad libitum. Animals were fasted overnight before dosing and given food 3-4 hours after dosing. Animals given water ad libitum. Animals were assigned at random to one of five treatments. Two groups of five animals each, one group of males and one group of females were assigned to each treatment. The treatments were control, 250 mg/kg, 500 mg/kg, 1000 mg/kg and 2000 mg/kg doses. A solution of the compound in water was administered in a single oral dose by gastric gavage. Animals were maintained for a 14-day observation period after receiving the dose. Surviving animals were killed on day 14. The weight of animals were recorded immediately before treatment, twice weekly for the study period and at death.
# [6] = system: periparturient dairy cows
# Source text: The effects of supplementation with chromium in the form of chromium tri-L-methionine hydrochloride on performance of periparturient dairy cows were studied. Seventy-two cows were used to determine whether milk production and dry matter intake were affected by chromium tri-L-methionine hydrochloride supplementation of the diet during the periparturient period. Cows were fed either a diet high in nonforage fiber sources or high in non-fiber carbohydrates from day 21 before expected parturition until parturition and then fed a common lactating diet. Chromium tri-L-methionine hydrochloride was supplemented once daily via gelcap at doses of 0, 0.03, or 0.06 mg Cr/kg of metabolic body weight. Chromium supplementation began on day 21 before expected parturition and continued until day 28 postpartum. Cows were milked after calving according to established procedures. Feed intake was recorded daily for each cow throughout the experiment. Samples of the diet were obtained weekly and the dry matter contents were determined. Individual milk weights were recorded at each milking during the lactating phase of the experiment. Milk samples were taken from all milkings during one 24-hours period each week, composited based on the amount of milk produced at each milking, and analyzed for fat, protein, lactose, and total solids.
# [7] = system: rat isolated adipose tissue; settings: cited from earlier work
# [8] = cited from earlier work
# [9] = system: Chinese hamster ovary cells; settings: cited from earlier work
# [10] = system: rat; settings: added to rat diet; cited from earlier work
# [11] = system: Humans; settings: dietary supplementation, males and females; cited from earlier work
# [12] = system: DNA; settings: cited from earlier work
# [13] = system: rat skeletal muscle cultures; settings: rat skeletal muscle cultures in vitro; cited from earlier work
# [14] = slightly more than 2 equivalents of 0.1 molar sodium bicarbonate to a 0.1M solution
# [15] = 10 ml of 0.1 molar solution + 200 ml 0.1 molar sodium bicarbonate (20 molar equivalents)
# [16] = additional 600 ml 0.1 molar sodium bicarbonate (80 molar equivalents in all)
molecule,measurement,setting,value
CC(=O)/C=C(/C)[O-].CC(=O)/C=C(/C)[O-].CC(=O)/C=C(/C)[O-].[Cr+3] [Chromium Acetylacetonate],absorption from the gastrointestinal tract,[1],rapidly absorbed
"[Cl][Cr]([Cl])[Cl] [chromium chloride, reference compound]",toxicity in rats,[2]; rats,lack of toxicity
same,pH of the mixture,[3]; [14],4.356
same,precipitate formation,[3]; [14],voluminous precipitate
Chromium (III) Tri-leucinate Hydrochloride [Example 2],pH of a 0.1 molar solution in water,[4],3.996
same,pH of the solution after sodium bicarbonate,[3]; [15],7.987
same,precipitate formation,[3]; [15],No precipitate was formed
Chromium (III) Tri-methionate Hydrochloride [Example 1],body weight gain,"[5]; 2000 mg/kg dose, 4000 folds the recommended dose",slight decrease
same,food consumption compared to control,[5]; 1000 and 2000 mg/kg doses,dose related decrease
same,gain in body weight,[5]; dose 2000 folds the recommended dose,not associated with a decrease
same,toxicity in rats,[5]; doses used / high doses,non-toxic
same,decrease in body weight gain,"[5]; male rats, 2000 mg/kg single oral dose",5%
same,macroscopic abnormalities at necropsy,[5]; necropsied on day 14 after the oral dose,no macroscopic abnormalities
same,mortality,"[5]; single oral dose 250-2000 mg/kg, 14-day observation",No animals died
same,treatment-related clinical signs,"[5]; single oral dose, any of the dose levels (250-2000 mg/kg)",no treatment-related clinical signs
same,toxicity,"[5]; single oral dose, dose levels 1000 folds the recommended dose in pigs",did not induce any toxicity
same,% Milk Fat,[6]; 0.03 mg/kg BW^.75,4.41%
same,% Milk Lactose,[6]; 0.03 mg/kg BW^.75,4.69%
same,% Milk Protein,[6]; 0.03 mg/kg BW^.75,3.37%
same,% Milk Solids,[6]; 0.03 mg/kg BW^.75,13.39%
same,Milk Fat,[6]; 0.03 mg/kg BW^.75,1.76 kg/day
same,Milk Lactose,[6]; 0.03 mg/kg BW^.75,1.91 kg/day
same,Milk Production,[6]; 0.03 mg/kg BW^.75,40.6 kg/day
same,Milk Protein,[6]; 0.03 mg/kg BW^.75,1.33 kg/day
same,Milk Solids,[6]; 0.03 mg/kg BW^.75,5.37 kg/day
same,Postpartum Dry Matter Intake,[6]; 0.03 mg/kg BW^.75,18.9 kg/day
same,Prepartum Dry Matter Intake,[6]; 0.03 mg/kg BW^.75,13.9 kg/day
same,% Milk Fat,[6]; 0.06 mg/kg BW^.75,4.33%
same,% Milk Lactose,[6]; 0.06 mg/kg BW^.75,4.61%
same,% Milk Protein,[6]; 0.06 mg/kg BW^.75,3.15%
same,% Milk Solids,[6]; 0.06 mg/kg BW^.75,13.03%
same,Milk Fat,[6]; 0.06 mg/kg BW^.75,1.81 kg/day
same,Milk Lactose,[6]; 0.06 mg/kg BW^.75,1.98 kg/day
same,Milk Production,[6]; 0.06 mg/kg BW^.75,42.8 kg/day
same,Milk Protein,[6]; 0.06 mg/kg BW^.75,1.31 kg/day
same,Milk Solids,[6]; 0.06 mg/kg BW^.75,5.51 kg/day
same,Postpartum Dry Matter Intake,[6]; 0.06 mg/kg BW^.75,19.4 kg/day
same,Prepartum Dry Matter Intake,[6]; 0.06 mg/kg BW^.75,13.7 kg/day
same,effect on dry matter intake in cows,"[6]; diet supplementation, 0.03 or 0.06 mg Cr/kg metabolic body weight",did not affect
same,pH of a 0.1 molar solution in water,[4],4.078
same,pH of the solution after sodium bicarbonate,[3]; [15],8.097
same,precipitate formation,[3]; [15],No precipitate was formed
same,pH of the solution after sodium bicarbonate,[3]; [16],8.354
same,precipitate formation,[3]; [16],No precipitate was formed
chromium dinicotinate,insulin activity,[7],potentiated
chromium picolinate,toxicity in rats,"[2]; rat, in vivo",lack of toxicity
same,water solubility,[8],limited
same,chromosome damage,[9],produces chromosome damage
same,glycation of hemoglobin,[10],prevented
same,plasma glucose,[10],significant decrease
same,lean body mass,[11],significant increase
same,DNA cleavage,[12],cleaves DNA
same,glucose uptake,[13],increased
